Source: patent US20250313572A1, “MACROCYCLIC MCL-1 INHIBITORS AND METHODS OF USE” (AbbVie Inc., priority 2017, published 2025)
Where two headings read alike, the source gives them in different places.

Tests used:
[1] = test system: AMO-1 human multiple myeloma tumor cell line; assay: AMO-1 cell viability assay (CellTiter-Glo, 24 hours); format: cell-based; conditions: Homo sapiens, AMO1, 24 h, read-out: AMO-1 Viability IC50 (μM, 10% FBS), 10% FBS, 24 hours of compound treatment
[2] = test system: NCI-H929 human multiple myeloma tumor cell line; assay: NCI-H929 cell viability assay (CellTiter-Glo, 24 hours); format: cell-based; conditions: Homo sapiens, NCI-H929, 24 h, read-out: H929 Viability IC50 (μM, 10% FBS), 10% FBS, 24 hours of compound treatment
[3] = target: GST-MCL-1 (Homo sapiens, UniProt Q07820); assay: TR-FRET MCL-1 binding assay (competition with probe F-Bak)
How it was run: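 Test compounds, 11 three-fold dilutions from 25 μM final, incubated 2 hours at room temperature with GST-MCL-1, F-Bak probe and Tb-anti-GST antibody. TR-FRET read at 340/35 nm excitation with 520/525 and 495/510 nm emission. Run without human serum and with 10% HS.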

[4] = MCL-1 Binding Ki (nM, 10% HS), in the presence of 10% HS (human serum)
[5] = without HS, read-out: MCL-1 Binding Ki

Sequence of GST-MCL-1 (Q07820 whole entry): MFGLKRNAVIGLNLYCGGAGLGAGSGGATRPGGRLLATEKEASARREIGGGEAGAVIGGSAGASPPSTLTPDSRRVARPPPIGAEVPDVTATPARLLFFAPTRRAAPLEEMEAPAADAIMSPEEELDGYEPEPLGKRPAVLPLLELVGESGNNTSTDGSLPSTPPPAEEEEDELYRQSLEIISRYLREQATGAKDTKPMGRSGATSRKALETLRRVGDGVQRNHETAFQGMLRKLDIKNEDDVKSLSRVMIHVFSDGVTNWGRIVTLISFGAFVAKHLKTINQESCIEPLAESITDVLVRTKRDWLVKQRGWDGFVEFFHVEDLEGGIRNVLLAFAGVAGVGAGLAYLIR

SMILES	IC50 [1]	IC50 [2]	Ki [3, 4]	Ki [3, 5]
COc1ccccc1-c1nccc(COc2ccc3cc2C[C@H](C(=O)O)Oc2ncnc4sc(-c5ccc(F)cc5)c(c24)-c2ccc(c(Cl)c2C)O[C@H](CN2CCN(C[C@H]4O[C@H](OC)[C@@H](OC)[C@@H](OC)[C@@H]4OC)CC2)CO3)n1 [Example 6, methyl 6-(4-{[(7R,16R,21S)-7-carboxy-19-chloro-1-(4-fluorophenyl)-10-{[2-(2-methoxyphenyl)pyrimidin-4-yl]methoxy}-20-methyl-7,8,15,16-tetrahydro-18,21-etheno-13,9-(metheno)-6,14,17-trioxa-2-thia-3,5-diazacyclononadeca[1,2,3-cd]inden-16-yl]methyl}piperazin-1-yl)-6-deoxy-2,3,4-tri-O-methyl-a-D-mannopyranoside]	0.03 µM	0.024 µM	0.221 nM	0.014 nM
CO[C@H]1O[C@H](COc2cccc(-c3nccc(COc4ccc5cc4C[C@H](C(=O)O)Oc4ncnc6sc(-c7ccc(F)cc7)c(c46)-c4ccc(c(Cl)c4C)O[C@H](CN4CCN(C)CC4)CO5)n3)c2)[C@@H](OC)[C@H](OC)[C@@H]1OC [Example 7, methyl 6-O-{3-[4-({[(7R,16R,21S)-7-carboxy-19-chloro-1-(4-fluorophenyl)-20-methyl-16-[(4-methylpiperazin-1-yl)methyl]-7,8,15,16-tetrahydro-18,21-etheno-13,9-(metheno)-6,14,17-trioxa-2-thia-3,5-diazacyclononadeca[1,2,3-cd]inden-10-yl]oxy}methyl)pyrimidin-2-yl]phenyl}-2,3,4-tri-O-methyl-a-D-mannopyranoside]	0.007 µM	0.011 µM	0.599 nM	0.054 nM
CO[C@H]1O[C@H](COc2cccc(-c3nccc(COc4ccc5cc4C[C@@H](C(=O)O)Oc4ncnc6sc(-c7ccc(F)cc7)c(c46)-c4ccc(c(Cl)c4C)O[C@H](CN4CCN(C)CC4)CO5)n3)c2)[C@@H](OC)[C@H](OC)[C@@H]1OC [Example 8, methyl 6-O-{3-[4-({[(7S,16R,21S)-7-carboxy-19-chloro-1-(4-fluorophenyl)-20-methyl-16-[(4-methylpiperazin-1-yl)methyl]-7,8,15,16-tetrahydro-18,21-etheno-13,9-(metheno)-6,14,17-trioxa-2-thia-3,5-diazacyclononadeca[1,2,3-cd]inden-10-yl]oxy}methyl)pyrimidin-2-yl]phenyl}-2,3,4-tri-O-methyl-a-D-mannopyranoside]	0.518 µM	0.989 µM	111 nM	8.83 nM
CO[C@H]1O[C@H](COc2ccc(-c3nccc(COc4ccc5cc4C[C@H](C(=O)O)Oc4ncnc6sc(-c7ccc(F)cc7)c(c46)-c4ccc(c(Cl)c4C)CN(CCN4CCN(C)CC4)C5)n3)cc2)[C@@H](O)[C@H](O)[C@H]1O [Example 9, methyl 6-O-{4-[4-({[(7R,20S)-7-carboxy-18-chloro-1-(4-fluorophenyl)-19-methyl-15-[2-(4-methylpiperazin-1-yl)ethyl]-7,8,15,16-tetrahydro-14H-17,20-etheno-13,9-(metheno)-6-oxa-2-thia-3,5,15-triazacyclooctadeca[1,2,3-cd]inden-10-yl]oxy}methyl)pyrimidin-2-yl]phenyl}-a-D-glucopyranoside]	0.732 µM	> 1 µM	0.296 nM	0.048 nM
CO[C@H]1O[C@H](COc2ccc(-c3nccc(COc4ccc5cc4C[C@H](C(=O)O)Oc4ncnc6sc(-c7ccc(F)cc7)c(c46)-c4ccc(c(Cl)c4C)CN(CCN4CCN(C)CC4)C5)n3)cc2)[C@@H](O)[C@H](O)[C@@H]1O [Example 10, methyl 6-O-{4-[4-({[(7R,20S)-7-carboxy-18-chloro-1-(4-fluorophenyl)-19-methyl-15-[2-(4-methylpiperazin-1-yl)ethyl]-7,8,15,16-tetrahydro-14H-17,20-etheno-13,9-(metheno)-6-oxa-2-thia-3,5,15-triazacyclooctadeca[1,2,3-cd]inden-10-yl]oxy}methyl)pyrimidin-2-yl]phenyl}-a-D-mannopyranoside]	> 1 µM	> 1 µM	0.494 nM	0.06 nM
CO[C@H]1O[C@H](COc2ccc(-c3nccc(COc4ccc5cc4C[C@H](C(=O)O)Oc4ncnc6sc(-c7ccc(F)cc7)c(c46)-c4ccc(c(Cl)c4C)CN(CCN4CCN(C)CC4)C5)n3)cc2)[C@@H](OC)[C@H](OC)[C@@H]1OC [Example 11, methyl 6-O-{4-[4-({[(7R,20S)-7-carboxy-18-chloro-1-(4-fluorophenyl)-19-methyl-15-[2-(4-methylpiperazin-1-yl)ethyl]-7,8,15,16-tetrahydro-14H-17,20-etheno-13,9-(metheno)-6-oxa-2-thia-3,5,15-triazacyclooctadeca[1,2,3-cd]inden-10-yl]oxy}methyl)pyrimidin-2-yl]phenyl}-2,3,4-tri-O-methyl-a-D-mannopyranoside]	0.363 µM	0.514 µM	2.34 nM	0.374 nM
CO[C@H]1O[C@H](COc2ccc(-c3nccc(COc4ccc5cc4C[C@H](C(=O)O)Oc4ncnc6sc(-c7ccc(F)cc7)c(c46)-c4ccc(c(Cl)c4C)O[C@H](CN4CCN(C)CC4)CO5)n3)cc2)[C@@H](O)[C@H](O)[C@@H]1O [Example 12, methyl 6-O-{4-[4-({[(7R,16R,21S)-7-carboxy-19-chloro-1-(4-fluorophenyl)-20-methyl-16-[(4-methylpiperazin-1-yl)methyl]-7,8,15,16-tetrahydro-18,21-etheno-13,9-(metheno)-6,14,17-trioxa-2-thia-3,5-diazacyclononadeca[1,2,3-cd]inden-10-yl]oxy}methyl)pyrimidin-2-yl]phenyl}-a-D-mannopyranoside]	0.0187 µM	0.0316 µM	0.227 nM	0.603 nM
CO[C@H]1O[C@H](COc2ccc(-c3nccc(COc4ccc5cc4C[C@H](C(=O)O)Oc4ncnc6sc(-c7ccc(F)cc7)c(c46)-c4ccc(c(Cl)c4C)O[C@H](CN4CCN(C)CC4)CO5)n3)cc2)[C@@H](OC)[C@H](OC)[C@@H]1OC [Example 14, methyl 6-O-{4-[4-({[(7R,16R,21S)-7-carboxy-19-chloro-1-(4-fluorophenyl)-20-methyl-16-[(4-methylpiperazin-1-yl)methyl]-7,8,15,16-tetrahydro-18,21-etheno-13,9-(metheno)-6,14,17-trioxa-2-thia-3,5-diazacyclononadeca[1,2,3-cd]inden-10-yl]oxy}methyl)pyrimidin-2-yl]phenyl}-2,3,4-tri-O-methyl-a-D-mannopyranoside]	0.00154 µM	0.00258 µM	0.547 nM	0.124 nM
COCCOCCOCCOc1ccccc1-c1nccc(COc2ccc3cc2C[C@H](C(=O)O)Oc2ncnc4sc(-c5ccc(F)cc5)c(c24)-c2c(C)c(Cl)c(c(Cl)c2C)O[C@H](CN2CCN(C)CC2)CO3)n1 [Example 15, (7R,16R,21S)-19,23-dichloro-1-(4-fluorophenyl)-10-{[2-(2-{2-[2-(2-methoxyethoxy)ethoxy]ethoxy}phenyl)pyrimidin-4-yl]methoxy}-20,22-dimethyl-16-[(4-methylpiperazin-1-yl)methyl]-7,8,15,16-tetrahydro-18,21-etheno-9,13-(metheno)-6,14,17-trioxa-2-thia-3,5-diazacyclononadeca[1,2,3-cd]indene-7-carboxylic Acid]	0.000524 µM	0.000751 µM	0.152 nM	0.015 nM
